This note sets out measurements from US20230182351A1, “ANTI-MICROBIAL ADDITIVE AND PROPERTIES TO FOAM TO PREVENT MOLD” (LEAR CORPORATION, priority 2021, published 2023).

This test concerns bacterial and fungal growth. Put plainly: Antimicrobial tests summarized in Table 1 (JIS Z 2801, ASTM G-21). It counts as cell-based. Conditions: in polyurethane foam, amount systematically varied. The protocol:
Two polyurethane sample families were prepared. The amount of the liquid antimicrobial agent N-butyl-1,2-benzisothiazolin-3-one was systematically varied. It is pointed out that he JIS Z 2801 method test is an industry standard for testing the ability of a surface to inhibit the growth of microorganisms. ASTM G-21 is a test for fungal resistance test

As for `CCCCn1sc2ccccc2c1=O` [N-butyl-1,2-benzisothiazolin-3-one], the “inhibition of bacterial and fungal growth” value was “significant inhibition”.
